{
  "source": "patent US5194424A",
  "about": "“C^63 -amide derivatives of 34-de(acetylglucosaminyl)-34-deoxy-teicoplanin and their use as medicaments against bacteria resistant to glycopeptide antibiotics” (Gruppo Lepetit SpA, priority 1988, dated 1993)",
  "key": {"[1]": {"system": "Staphylococcus aureus TOUR", "assay": "In vitro MIC, standard agar-dilution test in microtiter", "format": "cell-based", "settings": "ISOSENSITEST broth, inoculum about 10^4 CFU/ml, 18-24 h at 37° C.", "description": "(§1) The antibacterial activity, of the compounds of the invention is determined in vitro by means of standard agar-dilution tests in microtiter. ISOSENSITEST broth (Oxoid) and TODD-HEWITT broth (Difco) are used for growing Staphylococci and Streptococci. respectively. Broth cultures are diluted so that the final inoculum is about 10^4 forming units/ml (CFU/ml)."}, "[2]": {"system": "Streptococcus faecalis ATCC 7080", "assay": "In vitro MIC, standard agar-dilution test in microtiter", "format": "cell-based", "settings": "TODD-HEWITT broth, inoculum about 10^4 CFU/ml, 18-24 h at 37° C.", "description": "as §1"}, "[3]": {"system": "Streptococcus pyogenes C 203", "assay": "In vitro MIC, standard agar-dilution test in microtiter", "format": "cell-based", "settings": "TODD-HEWITT broth, inoculum about 10^4 CFU/ml, 18-24 h at 37° C.", "description": "as §1"}, "[4]": {"system": "Staphylococcus epidermidis ATCC 12228", "assay": "In vitro MIC, standard agar-dilution test in microtiter", "format": "cell-based", "settings": "ISOSENSITEST broth, inoculum about 10^4 CFU/ml, 18-24 h at 37° C.", "description": "as §1"}, "[5]": {"system": "Staphylococcus haemolyticus L 602", "assay": "In vitro MIC, standard agar-dilution test in microtiter", "format": "cell-based", "settings": "ISOSENSITEST broth, inoculum about 10^4 CFU/ml, 18-24 h at 37° C.", "description": "as §1, with “TODD-[…]” for “TODD-HEWITT”"}, "[6]": {"system": "Streptococcus pneumoniae UC 41", "assay": "In vitro MIC, standard agar-dilution test in microtiter", "format": "cell-based", "settings": "TODD-HEWITT broth, inoculum about 10^4 CFU/ml, 18-24 h at 37° C.", "description": "as §1, with “TODD-[…]” for “TODD-HEWITT”"}, "[7]": {"system": "glycopeptide-resistant E. faecium", "assay": "In vitro MIC against glycopeptide-resistant Enterococci", "format": "cell-based", "description": "(§2) In particular, the activity of the compounds of the invention was confirmed through in vitro experiments carried out with clinical isolates resistant to glycopeptide antibiotics such as with Enterococci faecalis, Enterococci faecium, as shown in Table IIa.\n(§3) The antibacterial activity is determined in vitro by means of standard\n(§4) agardilution tests in microtiter. ISOSENSITEST broth (Oxoid) is used for\n(§5) growing Enterococci. Broth cultures are diluted so that the final inoculu\n(§6) is about 5 × 10^5 forming units/ml (CFU/ml)."}, "[8]": {"system": "glycopeptide-resistant E. faecalis", "assay": "In vitro MIC against glycopeptide-resistant Enterococci", "format": "cell-based", "description": "as §2, §3, §4, §5, §6"}, "[9]": {"system": "Streptococcus pyogenes C 203", "settings": "comparison statement for teicoplanin and prior-art compounds; never lower than; cited from earlier work"}, "[10]": {"system": "clinical isolates of Streptococcus pyogenes", "assay": "MIC against clinical isolates of Streptococcus pyogenes", "format": "cell-based", "description": "as §1"}, "[11]": {"settings": "E. faecium L 1666, ISOSENSITEST broth, inoculum about 5 × 10^5 CFU/ml"}},
  "data": [
    {"molecule": "CC(C)CCCCCCC(=O)N[C@H]1[C@H](Oc2c3cc4cc2Oc2ccc(cc2Cl)CC2NC(=O)C(NC(=O)C4NC(=O)C4NC(=O)C(Cc5ccc(c(Cl)c5)O3)NC(=O)C(N)c3ccc(O)c(c3)Oc3cc(O)cc4c3)c3ccc(O)c(c3)-c3c(O[C@H]4O[C@H](CO)[C@@H](O)[C@H](O)[C@@H]4O)cc(O)cc3C(C(=O)NCCCN(C)C)NC2=O)O[C@H](CO)[C@@H](O)[C@@H]1O", "note": "(stereo partly shown) [Compound 6]", "values": [
      {"measurement": "MIC", "setting": "[1]", "value": 2, "unit": "microgram/ml"},
      {"measurement": "MIC", "setting": "[2]", "value": 2, "unit": "microgram/ml"},
      {"measurement": "MIC", "setting": "[3]", "value": 0.06, "unit": "microgram/ml"},
      {"measurement": "MIC", "setting": "[4]", "value": 0.12, "unit": "microgram/ml"},
      {"measurement": "MIC", "setting": "[5]", "value": 1, "unit": "microgram/ml"},
      {"measurement": "MIC", "setting": "[6]", "value": 0.25, "unit": "microgram/ml"}
    ]},
    {"molecule": "CC(C)CCCCCCC(=O)N[C@H]1[C@H](Oc2c3cc4cc2Oc2ccc(cc2Cl)CC2NC(=O)C(NC(=O)C4NC(=O)C4NC(=O)C(Cc5ccc(c(Cl)c5)O3)NC(=O)C(N)c3ccc(O)c(c3)Oc3cc(O)cc4c3)c3ccc(O)c(c3)-c3c(O[C@H]4O[C@H](CO)[C@@H](O)[C@H](O)[C@@H]4O)cc(O)cc3C(C(=O)NCCCNCCO)NC2=O)O[C@H](CO)[C@@H](O)[C@@H]1O", "note": "(stereo partly shown) [Compound 7]", "values": [
      {"measurement": "MIC", "setting": "[1]", "value": 1, "unit": "microgram/ml"},
      {"measurement": "MIC", "setting": "[2]", "value": 2, "unit": "microgram/ml"},
      {"measurement": "MIC", "setting": "[3]", "value": 0.032, "unit": "microgram/ml"},
      {"measurement": "MIC", "setting": "[4]", "value": 0.06, "unit": "microgram/ml"},
      {"measurement": "MIC", "setting": "[5]", "value": 1, "unit": "microgram/ml"},
      {"measurement": "MIC", "setting": "[6]", "value": 0.25, "unit": "microgram/ml"}
    ]},
    {"molecule": "CC(C)CCCCCCC(=O)N[C@H]1[C@H](Oc2c3cc4cc2Oc2ccc(cc2Cl)CC2NC(=O)C(NC(=O)C4NC(=O)C4NC(=O)C(Cc5ccc(c(Cl)c5)O3)NC(=O)C(N)c3ccc(O)c(c3)Oc3cc(O)cc4c3)c3ccc(O)c(c3)-c3c(O[C@H]4O[C@H](CO)[C@@H](O)[C@H](O)[C@@H]4O)cc(O)cc3C(C(=O)NCCCN(CCCN)CCCN)NC2=O)O[C@H](CO)[C@@H](O)[C@@H]1O", "note": "(stereo partly shown) [Compound 33]", "values": [
      {"measurement": "MIC", "setting": "[1]", "value": 0.12, "unit": "microgram/ml"},
      {"measurement": "MIC", "setting": "[2]", "value": 0.12, "unit": "microgram/ml"},
      {"measurement": "MIC", "setting": "[3]", "value": 0.004, "unit": "microgram/ml"},
      {"measurement": "MIC", "setting": "[4]", "value": 0.004, "unit": "microgram/ml"},
      {"measurement": "MIC", "setting": "[5]", "value": 0.032, "unit": "microgram/ml"},
      {"measurement": "MIC", "setting": "[6]", "value": 0.12, "unit": "microgram/ml"}
    ]},
    {"molecule": "CN[C@H](CC(C)C)C(=O)N[C@H]1C(=O)N[C@@H](CC(N)=O)C(=O)N[C@H]2C(=O)N[C@H]3C(=O)N[C@H](C(=O)N[C@H](C(=O)O)c4cc(O)cc(O)c4-c4cc3ccc4O)[C@H](O)c3ccc(c(Cl)c3)Oc3cc2cc(c3O[C@@H]2O[C@H](CO)[C@@H](O)[C@H](O)[C@H]2O[C@H]2C[C@](C)(N)[C@H](O)[C@H](C)O2)Oc2ccc(cc2Cl)[C@H]1O", "note": "[VANCO, vancomycin]", "values": [
      {"measurement": "MIC", "setting": "[7]; [11]", "value": "> 128", "unit": "µg/mL"},
      {"measurement": "MIC", "setting": "[7]; Enterococcus faecium", "value": "> 128", "unit": "µg/mL"},
      {"measurement": "MIC", "setting": "[7]; Enterococcus faecium, NCTC12203", "value": "> 128", "unit": "µg/mL"},
      {"measurement": "MIC", "setting": "[8]; Enterococcus faecalis", "value": "> 128", "unit": "µg/mL"},
      {"measurement": "MIC", "setting": "[8]; Enterococcus faecalis, NCTC12201", "value": "> 128", "unit": "µg/mL"},
      {"measurement": "MIC", "setting": "[8]; Enterococcus faecalis, NCTC12202", "value": "> 128", "unit": "µg/mL"}
    ]},
    {"molecule": "teicoplanin", "values": [
      {"measurement": "MIC against Streptococcus pyogenes", "setting": "[9]", "value": "≥ 0.06", "unit": "microgram/ml"},
      {"measurement": "MIC", "setting": "[7]; [11]", "value": "> 128", "unit": "µg/mL"},
      {"measurement": "MIC", "setting": "[7]; E. faecium NCTC 12203, ISOSENSITEST broth, inoculum about 5 × 10^5 CFU/ml", "value": 64, "unit": "µg/mL"},
      {"measurement": "MIC", "setting": "[7]; E. faecium NTCT 12204, ISOSENSITEST broth, inoculum about 5 × 10^5 CFU/ml", "value": 64, "unit": "µg/mL"},
      {"measurement": "MIC", "setting": "[8]; E. faecalis L 560, ISOSENSITEST broth, inoculum about 5 × 10^5 CFU/ml", "value": "> 128", "unit": "µg/mL"},
      {"measurement": "MIC", "setting": "[8]; E. faecalis NCTC 12201, ISOSENSITEST broth, inoculum about 5 × 10^5 CFU/ml", "value": 128, "unit": "µg/mL"},
      {"measurement": "MIC", "setting": "[8]; E. faecalis NCTC 12202, ISOSENSITEST broth, inoculum about 5 × 10^5 CFU/ml", "value": 128, "unit": "µg/mL"},
      {"measurement": "MIC", "setting": "[10]; S. pyogenes strain L-33", "value": 0.063, "unit": "microgram/ml"},
      {"measurement": "MIC", "setting": "[10]; S. pyogenes strain L-317", "value": 0.063, "unit": "microgram/ml"},
      {"measurement": "MIC", "setting": "[10]; S. pyogenes strain L-800", "value": 0.063, "unit": "microgram/ml"},
      {"measurement": "MIC", "setting": "[10]; S. pyogenes strain L-801", "value": 0.063, "unit": "microgram/ml"},
      {"measurement": "MIC", "setting": "[10]; S. pyogenes strain L-802", "value": 0.063, "unit": "microgram/ml"},
      {"measurement": "MIC", "setting": "[10]; S. pyogenes strain L-803", "value": 0.063, "unit": "microgram/ml"},
      {"measurement": "MIC", "setting": "[10]; S. pyogenes strain L-804", "value": 0.063, "unit": "microgram/ml"},
      {"measurement": "MIC", "setting": "[10]; S. pyogenes strain L-805", "value": 0.063, "unit": "microgram/ml"},
      {"measurement": "MIC", "setting": "[10]; S. pyogenes strain L-1303", "value": 0.063, "unit": "microgram/ml"},
      {"measurement": "MIC", "setting": "[10]; S. pyogenes strain L-1304", "value": 0.125, "unit": "microgram/ml"},
      {"measurement": "MIC", "setting": "[10]; S. pyogenes strain L-1306", "value": 0.125, "unit": "microgram/ml"},
      {"measurement": "MIC", "setting": "[10]; S. pyogenes strain L-1315", "value": 0.063, "unit": "microgram/ml"},
      {"measurement": "MIC", "setting": "[10]; S. pyogenes strain L-1316", "value": 0.063, "unit": "microgram/ml"},
      {"measurement": "MIC", "setting": "[10]; S. pyogenes strain L-1318", "value": 0.063, "unit": "microgram/ml"},
      {"measurement": "MIC", "setting": "[10]; S. pyogenes strain L-1319", "value": 0.063, "unit": "microgram/ml"}
    ]}
  ]
}
